Source: patent publication US20220193039A1, “APPLICATION OF 2,4,5-TRISUBSTITUTED 1,2,4-TRIAZOLONES IN ANTIVIRAL THERAPY” (priority 2020, published 2022)
Where two headings read alike, the source gives them in different places.

Assays:
Type in all cases: cell-based
[1] = tested on: SARS-CoV-2 (nCoV-2019BetaCoV/Wuhan/WIV04/2019 strain); assay: microbe, parasite or virus in culture; conditions: for inhibition of viral RNA load in the cells: Vero E6, dose-dependent; for EC50: Severe acute respiratory syndrome coronavirus 2, Vero C1008, Vero E6 cells, viral RNA copy number, read-out: EC50 against SARS-CoV-2
[2] = Cytotoxicity test of drug, CCK-8 kit; conditions: African green monkey; Vero E6 cells; CCK-8; 48 hours
Protocol: (§1) (5) Cytotoxicity test of drug
(§2) The detection of the drug cytotoxicity was performed using CCK-8 kit (Beoytime). Specific steps were as follows:
(§3) 1) 1×104 Vero E6 (ATCC) cells were placed in a 96-well plate and incubated at 37° C. for 8 hours.
(§4) 2) The drug was diluted with DMSO to an appropriate concentration of mother liquor, and then diluted with MEM medium (purchased from Gibco, Catalog No. 10370021) containing 2% FBS (purchased from Gibco, Catalog No. 16000044) to the same concentration as that for the drug treatment. The original medium in the 96-well plate was discarded, 100 μL of drug-containing MEM medium was added to the cells, and three replicate wells were prepared for each concentration. Vehicle control (DMSO and medium were added to the cell wells, without adding drug) and blank control (DMSO and medium were added to the wells, without cells) were set up. After the drug was added, the cells were cultured at 37° C. for 48 hours.
(§5) 3) 20 μL of CCK-8 solution (Beoytime) was added to the well to be tested, mixed gently, without generating bubbles, and continuously incubated at 37° C. for 2 hours. OD450 was read on a microplate reader (purchased from Molecular Devices, Model:SpectraMax M5), and cell viability was calculated:
(§6) Cell activity(%)=(A(drug treatment group)−A(blank control))/(A(vehicle control)−A(blank control))×100%
(§7) wherein A was the reading of the microplate reader.

Vero E6 cells = assay: Cytotoxicity test of drug, CCK-8 kit; conditions: at below 10 μM, FIG. 1
Protocol: as §1, §2, §3, §4, §5, §6, §7

influenza virus A/PR/8 = assay: microbe, parasite or virus in culture; conditions: unidentified influenza virus, MDCK, 72 h, read-out: EC50 influenza virus A/PR/8 (PR8-MDCK)
[3] = tested on: influenza virus A/California/07/2009; assay: microbe, parasite or virus in culture; conditions: unidentified influenza virus, MDCK, 72 h, read-out: EC50 influenza virus A/California/07/2009 (CA07-MDCK)
[4] = tested on: influenza virus A/Hongkong/08/1968; assay: microbe, parasite or virus in culture; conditions: unidentified influenza virus, MDCK, 72 h, read-out: EC50 influenza virus A/Hongkong/08/1968 (HK68-MDCK)
[5] = tested on: influenza virus A/Zhenxing1109/2010; assay: microbe, parasite or virus in culture; conditions: unidentified influenza virus, MDCK, 72 h, read-out: EC50 influenza virus A/Zhenxing1109/2010 (ZX1109-MDCK)
influenza virus B/Lee/40 = assay: microbe, parasite or virus in culture; conditions: unidentified influenza virus, MDCK, 72 h, read-out: EC50 influenza virus B/Lee/40 (Blee-MDCK)
[6] = Cytotoxicity test of the drug on MDCK (CellTiter-Glo); conditions: dog, MDCK cells
Protocol: (2) Cytotoxicity test of the drug
1) MDCK cell (purchased from ATCC, Catalog:CCL-34) was inoculated into a 96-well plate at a concentration of 1.5×10^4 cell/well, wherein the medium is DMEM (purchased from Gibco, Catalog No.: 11995065) containing 10% FBS (purchased from Gibco, Catalog No.: 16000044), and cultured for 24 hrs at 37° C. in a CO2 incubator.
2) Before the experiment, the cells were wahsed 3 times with PBS (purchased from Gibco, Catalog No.: 10010049), 150 μL of D/F-12 medium (purchased from Gibco, Catalog No.: 11330032) containing 2 μg/mL TPCK (purchased from Sigma, Catalog No.:T1426) was added. […]
(§8) 3) Buffer and substrate of CellTiter-Glo® Luminescent Cell Viability Assay Kit (purchased from Promega, Catalog No.:G7573) were mixed in dark as the work solution. […] After stabilizing the signal in dark for 5 min, chemiluminescence was determined by an enzyme-labeled instrument (purchased from Molecular Devices, SpectraMax M5), the plate reading program was the CellTiter-Glo preset program, and the cytotoxicity was calculated: […]
(§9) wherein A was the reads from the enzyme-labeled instrument.

[7] = tested on: zika virus strain SZ-SMGC-01; assay: Anti-zika virus activity in BHK or Vero cells (CellTiter-Glo); conditions: preliminary test results
Protocol: (1) Evaluation of anti-zika virus activity of the drug
1) BHK cells (preserved in Academy of Military Medical Sciences) or Vero cells (preserved in Academy of Military Medical Sciences) were inoculated into a 96 wells plate at a concentration of 5×10^3 cells/well for BHK cells and 1×10^4 cells/well for Vero cells, wherein the medium is DMEM (purchased from Gibco, Catalog No.: 11995065) containing 10% FBS (purchased from Gibco, Catalog No.: 16000044), and cultured for 24 hrs at 37° C. in a CO2 incubator.
(§10) 2) The culture medium in the 96-well plate was discarded, 100 μL of DMEM medium (purchased from Gibco, Catalog No.:11995065) containing 2% FBS (purchased from Gibco, Catalog No.: 16000044) was added. […] Finally, 50 μL of the zika virus strain SZ-SMGC-01 (preserved in Academy of Military Medical Sciences) diluted with DMEM medium containing 2% FBS was added to reach 100 TCID50 for each well. […]
as §8, with “for 2” for “for 5”, “the cell viability” for “the cytotoxicity”
as §9

bunya virus = conditions: preliminary test results; Huh7 cells
enterovirus strain CB3 = assay: Anti-enterovirus activity in Vero cells (CellTiter-Glo)
Protocol: (1) Evaluation of anti-enterovirus activity of the drug
1) Vero cells (purchased from ATCC, Catalog No.:CCL-81) were inoculated into a 96 wells plate at a concentration of 1×10^4 cells/well, wherein the medium is DMEM (purchased from Gibco, Catalog No.: 11995065) containing 2% FBS (purchased from Gibco, Catalog No.: 16000044), and cultured for 24 hrs at 37° C. in a CO2 incubator.
as §10, with “Before” for “The culture medium in”, “experiment, the cells were wahsed 3 times with PBS (purchased from Gibco, Catalog No.: 10010049),” for “96-well plate was discarded,”, “enterovirus” for “zika virus”, “CB3” for “SZ-SMGC-01”
as §8, with “After stablizing” for “After stabilizing”, “for 3” for “for 5”, “the cell viability” for “the cytotoxicity”
as §9

EV71 = assay: Anti-enterovirus activity, EV71-RD; conditions: Enterovirus A, RD cells
EVD68 = assay: Anti-enterovirus activity, EVD68-RD; conditions: RD cells
CA16 = assay: Anti-enterovirus activity, CA16-RD; conditions: RD cells
CA6 = assay: Anti-enterovirus activity, CA6-RD; conditions: RD cells
Vero cells = assay: Cytotoxicity test of the drug, enterovirus example (CellTiter-Glo); conditions: enterovirus table; cell line not given

Question: What does the source list for `CCn1c(CO)nn(-c2cc(O[C@@H](C)C(F)(F)F)c(C(=O)Nc3c(F)cccc3Cl)cc2F)c1=O` [BAY 2402234]?
Answer: inhibition of viral RNA load in the cells ([1]; 24 h after infection by SARS-CoV-2, FIG. 1(a)): can inhibit the viral RNA load; inhibition of viral RNA load in the cells ([1]; 48 h after infection by SARS-CoV-2, FIG. 1(b)): can inhibit the viral RNA load; EC50 ([1]; 24 hours after the infection): 7 nM; EC50 ([1]; 48 hours after the infection): 2.7 nM; inhibition of replication of the SARS-CoV-2 virus genome in the infected supernatant ([1]; at 10 μM, 3.3 μM, 1.1 μM, 0.3 μM, 0.1 μM and 0.03 μM, FIG. 1): could effectively inhibit the replication; CC50 at 48 h [2]: 199000 nM; effect on cell viability (cytotoxicity) (Vero E6 cells): did not change the cell viability; EC50 (influenza virus A/PR/8): 10 ± 0.3 nM; EC50 [3]: 30 ± 9 nM; EC50 [4]: 7 nM; EC50 [5]: 40 nM; EC50 (influenza virus B/Lee/40): 30 nM; CC50 at 72 h [6]: 270 nM; inhibitory effect on zika virus [7]: had inhibitory effect; inhibitory effect on bunya virus (bunya virus): had inhibitory effect; EC50 (enterovirus strain CB3; Enterovirus, 120 h, Vero cells, 5 days): < 50 nM; inhibitory effect on enterovirus (enterovirus strain CB3; preliminary test results): had inhibitory effect; EC50 (EV71): > 100000 nM; EC50 (EVD68): > 100000 nM; EC50 (CA16): > 100000 nM; EC50 (CA6): > 100000 nM; CC50 (Vero cells): > 300000 nM
